Test results reported in US12642270B2, “Substituted thiophene carboxamides, thiophene carboxylic acids and derivatives thereof” (Bayer Aktiengesellschaft, priority 2019, dated 2026).

assay: Log P by HPLC on reversed phase columns (EEC directive 79/831 Annex V.A8); format: physicochemical; conditions: LogP method [a]; compounds of formula (I), Table 1.1
Method in brief: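 Reversed-phase HPLC per EEC 79/831 Annex V.A8, LC-UV with 10→95% acetonitrile linear gradient; eluent [a] 0.1% formic acid (acidic), [b] 0.001 M ammonium acetate (neutral), [c] 0.1% phosphoric acid (acidic). Calibrated with C3–C16 straight-chain alkan-2-ones, linear interpolation of retention times; multiple values joined by "+".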

| SMILES | LogP |
| --- | --- |
| COC(=O)C(NC(=O)c1cc(C#N)c(Br)s1)C1CC1 (stereo not shown) [1.0402] | 2.50^[a] |
| CCOC(=O)C(Cc1ccccc1)NC(=O)c1cc(C#N)c(Br)s1 (stereo not shown) [1.0405] | 3.48^[a] |
| COC(=O)C(C1CC1)N(O)C(=O)c1sc(Br)c(Br)c1F (stereo not shown) [1.0413] | 2.77^[a] |
| CCOC(=O)C1(NC(=O)c2sc(Cl)c(Cl)c2C(F)F)CC1 [1.0414] | 3.17^[a] |
| COC(=O)CNC(=O)c1sc(Cl)c(Cl)c1C(F)F [1.0415] | 2.61^[a] |
| COC(=O)C(NC(=O)c1sc(Cl)c(Cl)c1C(F)F)C1CC1 (stereo not shown) [1.0417] | 3.33^[a] |
| CCOC(=O)C(NC(=O)c1sc(Cl)c(Cl)c1C(F)F)C(C)C (stereo not shown) [1.0418] | 4.13^[a] |
| CCOC(=O)C(CCSC)NC(=O)c1sc(Cl)c(Cl)c1C(F)F (stereo not shown) [1.0419] | 3.86^[a] |
| CCOC(=O)C(Cc1ccccc1)NC(=O)c1sc(Cl)c(Cl)c1C(F)F (stereo not shown) [1.0420] | 4.33^[a] |
| N#CCNC(=O)c1sc(Br)c(Cl)c1F [1.0421] | 2.33^[a] |
| COC(=O)C1(NC(=O)c2sc(Br)c(Cl)c2F)CC1 [1.0424] | 2.72^[a] |
| CCOC(=O)C1(NC(=O)c2sc(Br)c(Cl)c2F)CC1 [1.0426] | 3.09^[a] |
| COC(=O)C(NC(=O)c1sc(Br)c(Cl)c1F)C1CC1 (stereo not shown) [1.0427] | 3.38^[a] |
| CCOC(=O)C1(NC(=O)c2sc(Br)c(Cl)c2F)CCC1 [1.0428] | 3.73^[a] |
| COC(=O)C(CC(F)F)NC(=O)c1sc(Br)c(Cl)c1F (stereo not shown) [1.0430] | 3.21^[a] |
| CCOC(=O)C(CC(C)C)NC(=O)c1sc(Br)c(Cl)c1F (stereo not shown) [1.0431] | 4.64^[a] |
| CCOC(=O)C(CCSC)NC(=O)c1sc(Br)c(Cl)c1F (stereo not shown) [1.0432] | 3.96^[a] |
| CCOC(=O)C(Cc1ccccc1)NC(=O)c1sc(Br)c(Cl)c1F (stereo not shown) [1.0433] | 4.48^[a] |
| COC(=O)C(CCSC)NC(=O)c1sc(Br)c(Br)c1F (stereo not shown) [1.0434] | 3.57^[a] |

Continued, values first:

| LogP | SMILES |
| --- | --- |
| 2.30^[a] | CCOC(=O)C1(NC(=O)c2cc(C#N)c(Br)s2)CC1 [1.0401] |
| 3.22^[a] | CCOC(=O)C(NC(=O)c1cc(C#N)c(Br)s1)C(C)C (stereo not shown) [1.0403] |
| 3.03^[a] | CCOC(=O)C(CCSC)NC(=O)c1cc(C#N)c(Br)s1 (stereo not shown) [1.0404] |
| 2.22^[a] | COC(=O)CNC(=O)c1sc(Br)c(C#N)c1Br [1.0406] |
| 2.61^[a] | CCOC(=O)CNC(=O)c1sc(Br)c(C#N)c1Br [1.0407] |
| 2.71^[a] | CCOC(=O)C1(NC(=O)c2sc(Br)c(C#N)c2Br)CC1 [1.0408] |
| 3.02^[a] | COC(=O)C(NC(=O)c1sc(Br)c(C#N)c1Br)C1CC1 (stereo not shown) [1.0409] |
| 3.84^[a] | CCOC(=O)C(NC(=O)c1sc(Br)c(C#N)c1Br)C(C)C (stereo not shown) [1.0410] |
| 3.55^[a] | CCOC(=O)C(CCSC)NC(=O)c1sc(Br)c(C#N)c1Br (stereo not shown) [1.0411] |
| 4.08^[a] | CCOC(=O)C(Cc1ccccc1)NC(=O)c1sc(Br)c(C#N)c1Br (stereo not shown) [1.0412] |
| 2.97^[a] | CCOC(=O)CNC(=O)c1sc(Cl)c(Cl)c1C(F)F [1.0416] |
| 2.47^[a] | COC(=O)CNC(=O)c1sc(Br)c(Cl)c1F [1.0422] |
| 2.92^[a] | CCOC(=O)CNC(=O)c1sc(Br)c(Cl)c1F [1.0423] |
| 3.38^[a] | CCOC(=O)C(C)NC(=O)c1sc(Br)c(Cl)c1F (stereo not shown) [1.0425] |
| 4.38^[a] | CCOC(=O)C(NC(=O)c1sc(Br)c(Cl)c1F)C(C)C (stereo not shown) [1.0429] |

same assay, conditions: method marked [a]

| SMILES | LogP |
| --- | --- |
| COC(=O)C(NC(=O)c1sc(Cl)c(C#N)c1Cl)C1CC1 (stereo not shown) [1.0395] | 2.97^[a] |
| CCOC(=O)C(Cc1ccccc1)NC(=O)c1sc(Cl)c(C#N)c1Cl (stereo not shown) [1.0398] | 4.05^[a] |

Next, values leading:

| LogP | SMILES |
| --- | --- |
| 3.81^[a] | CCOC(=O)C(NC(=O)c1sc(Cl)c(C#N)c1Cl)C(C)C (stereo not shown) [1.0396] |
| 3.52^[a] | CCOC(=O)C(CCSC)NC(=O)c1sc(Cl)c(C#N)c1Cl (stereo not shown) [1.0397] |
| 1.79^[a] | COC(=O)CNC(=O)c1cc(C#N)c(Br)s1 [1.0399] |
| 2.11^[a] | CCOC(=O)CNC(=O)c1cc(C#N)c(Br)s1 [1.0400] |
